US20180132485A1, “USE OF HYDROXYAPATITE AS A CARRIER OF NUTRITIONAL ELEMENTS AND VEGETAL EXTRACTS FOR TREATING PLANTS” (NDG NATURAL DEVELOPMENT GROUP S.R.L., priority 2015, published 2018)

Tested on: Agrobacterium vitis
Assay: Inhibition of growth of Agrobacterium vitis strains on PDA plates (diameters of inhibitory zones)
Assay type: cell-based
Settings: 3% v/v; 6 strains; 28° C., 2-5 days
Protocol: The biological efficacy of the test agents was determined in terms of inhibition of the growth. To this aim 6 strains of Agrobacterium vitis from different growing areas worldwide, were grown in vitro. The strains of A. vitis, were inoculated on Petri dishes containing PDA (Potato Dextrose Agar), in the ratio of approximately 10 to 8 cells. After plating the bacteria, 5 holes (6 mm) were drilled in the substrate (one at the center of the plate and 4 equally spaced around the central hole). Each plate was filled with 20 microliters of test substance at the concentrations indicated; for each substance and concentration, 3 replies were set up. The central hole was filled with 20 microliters of sterile water, which represented the untreated control. The plates were incubated at 28° C., for 2-5 days.
After the expiration of the incubation period, for each tested strain and for each substance and concentration, the diameters of the inhibitory zones were considered (average of two orthogonal diameters of each inhibitory area). The collected data were subjected to analysis of variance ANOVA and comparison of averages with SNK test.

For `OCl` [Sodium Hypochlorite], the “inhibition of the growth (inhibitory zones)” value was “completely inhibited”.
